Laboratory results as given in US10100070B2, “Borate-based base generator, and base-reactive composition comprising such base generator” (FUJIFILM Wako Pure Chemical Corporation, priority 2014, dated 2018).

Key:
[1] = Storage stability tests to a base-reactive compound; format: physicochemical; conditions: 0.1 g in 2 g SR-NPG, 1 week at 40° C., viscosity change
[2] = Heat resistance tests (TG-DTA); format: physicochemical; conditions: 10 mg, heated from 30° C. to 500° C. at 10° C./min.
From the text: Thus calculated temperature was used as decomposition initiation temperature to evaluate heat resistance of these compounds (base generators).

[3] = Solubility tests to organic solvents and a base-reactive compound
Protocol: The case where the compounds (base generators) were dissolved into less than 1 mL of the addition amount of the organic solvents or the base-reactive compound was evaluated as [++]; the case where the compounds (base generators) were dissolved into not less than 1 mL and less than 5 mL thereof was evaluated as [+]; the case where the compounds (base generators) were dissolved into not less than 5 mL and less than 10 mL thereof was evaluated as [−]; and the case where the compounds (base generators) were dissolved only into not less than 10 mL thereof was evaluated as [−−].

Compound | Storage stability in epoxy [1] | TG-DTA Decomposition Initiation Temperature (5% weight loss initiation temperature) [2] [°C] | also measured
1,3-dimethyl-2-(N,N′,N″,N″-tetramethylguanidino)-4,5-dihydro-3H-imidazolium triphenyl(n-butyl)borate [Comp. Ex. 10] | − |  | 
1,3-dimethyl-2-(N′,N′,N″,N″-tetramethylguanidino)-4,5-dihydro-3H-imidazolium triphenyl(n-butyl)borate [Example 4] | ◯ | 280 | 
1-cyclohexyl-3-(4-nitrophenyl)-4,4,5,5-tetramethylbiguanidium triphenyl(n-butyl)borate [Example 9] | ◯ | 223 | 
CCCC[B-](c1ccccc1)(c1ccccc1)c1ccccc1.CN(C)C(=N[P+](N=C(N(C)C)N(C)C)(N=C(N(C)C)N(C)C)N=C(N(C)C)N(C)C)N(C)C [Example 5, tetrakis(tetramethylguanidino)phosphonium triphenyl(n-butyl)borate] | ◯ | 318 | 
CC(C)NC(=[N+]=C(N(C)C)N(C)C)NC(C)C.Cc1ccc(C#C[B-](c2ccccc2)(c2ccccc2)c2ccccc2)cc1 [Example 6, 1,2-diisopropyl-4,4,5,5-tetramethylbiguanidium p-tolylethynyl triphenylborate] | ◯ | 185 | 
tetrakis(tetramethylguanidino)phosphonium p-tolylethynyl triphenylborate [Example 7] | ◯ | 300 | 
tetrakis(tetramethylguanidino)phosphonium tetraphenylborate [Comp. Ex. 4] | − |  | Solubility in EL ([3]; 0.1 g compound, ethyl lactate added gradually at room temperature, visual): −− (dissolved only into not less than 10 mL thereof); Solubility in SR-NPG ([3]; 0.1 g compound, neopentylglycol diglycidyl ether added gradually at room temperature, visual): −− (dissolved only into not less than 10 mL thereof); Solubility in PGMEA ([3]; 0.1 g compound, propyleneglycol monomethylether acetate added gradually at room temperature, visual): −− (dissolved only into not less than 10 mL thereof); Solubility to organic solvents generally used in this field (in words) ([3]; conclusion from Table 7): poor solubility; Solubility to the base-reactive compound (in words) ([3]; conclusion from Table 7): poor solubility
